For data set [1], the target named is T1, LTD4 (isolated guinea pig trachea) (Cavia porcellus, UniProt Q2NNR5).
T1 construct: the neck is opened and the trachea removed; from tissue; host or cells: tracheal rings of male Hartley guinea pigs
T1 sequence (Q2NNR5 1-340): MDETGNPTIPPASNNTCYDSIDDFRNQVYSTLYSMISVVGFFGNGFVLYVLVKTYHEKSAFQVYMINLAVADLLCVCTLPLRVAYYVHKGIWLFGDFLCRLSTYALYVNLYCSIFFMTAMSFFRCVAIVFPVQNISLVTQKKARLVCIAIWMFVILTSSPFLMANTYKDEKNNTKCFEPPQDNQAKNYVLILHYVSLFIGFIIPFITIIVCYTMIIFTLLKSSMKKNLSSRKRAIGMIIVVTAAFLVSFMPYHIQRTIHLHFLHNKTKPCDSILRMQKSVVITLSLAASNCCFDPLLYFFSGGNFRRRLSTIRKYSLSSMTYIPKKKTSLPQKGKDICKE
Description: In vitro isolated guinea pig trachea assay, LTD4 antagonist activity. Further details: species or system guinea pig (male Hartley). Particulars: Table VII. The method, then:
The LTD4 antagonist activity of the compounds of the invention is assessed in the in vitro isolated guinea pig trachea assay. This assay is carried out as follows: Male Hartley guinea pigs (350-400 g) are euthanized by a blow to the head, the neck is opened and the trachea removed. The trachea is maintained in aerated physiological salt solution, cleared of connective tissue and fat and cut into rings approximately 2 mm in width (usually containing two cartilaginous segments per ring). Two pieces of silk suture are then passed through the lumen of the tracheal ring and are tied around the cartilage, one on each side of the trachealis muscle. […] The tracheal rings are maintained at 2 g resting tension and equilibrated for 45 minutes (with frequent washing and readjustment of resting tension). […] All responses to LTD4 in an individual tissue are measured as a percentage of the reference contraction of that tissue to carbachol. LTD4 antagonist activity is determined by comparison of the concentration response curves of LTD4 in the presence and absence of antagonist. Assessment of the relative rightward shift of the antagonist treated curve relative to the solvent (control) treated tissue is calculated as a concentration ratio (Eq. A) and used in subsequent calculations to derive an antagonist pKB value (Eqs B and C). […]

Data set [2] can be described thus: Rat acute gastroirritation assay. More on the design: species or system rat (male Sprague Dawley). Particulars: in vivo, po, gastric intubation, read-out: UD50. Here is the method:
The compounds of the invention are tested in the rat acute gastroirritation assay to examine their potential for causing gastric irritation when administered at doses exceeding the effective dose.
This assay is carried out as follows:
Male Sprague Dawley rats (190-220 g) are fasted for 18 hours prior to drug administration. Rats are divided into groups of 8 and coded (i.e., observer of gastric lesions is not aware of drug treatment). Drugs are dissolved or suspended in 0.5% Tween 80 and administered by gastric intubation in a volume of 1 ml/100 g body weight, control rats receiving only Tween 80. Four hours after drug administration, rats are evaluated by recording the incidence and severity of gastroirritation using the following scoring system: 0) No irritation or lesions; 1) irritation (redness); 2) ≤5 lesions (ulcers); and 3) >5 lesions. Dunnett's test (α=0.05) is used to calculate the mean ±SE of each test group and the statistical significance.

The Kb is the affinity of an antagonist, worked out from how it opposes an agonist.

In data set [1], `O=C(O)Cc1cc(OCc2ccc3ccccc3n2)ccc1Nc1c(Cl)cccc1Cl` [Example 2, 2-[(2,6-Dichlorophenyl)amino]-5-(2-quinolylmethoxy)benzene acetic acid] gave a Kb of 550 nM.

Regarding `O=C(O)Cc1ccccc1Nc1c(Cl)cccc1Cl` [diclofenac, reference compound], in data set [2], the TD50 at 4 h came out at 20 mg/kg.
